Experimental data published in PubChem BioAssay (NCI).
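Values below derive from 48-hour exposures of cells grown in 96-well plates, with endpoints linearly interpolated between the two concentrations bracketing the appropriate inhibition level. The concentration for full growth arrest is given as TGI.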

How the values were obtained:
Assay in all cases: NCI-60 cell line screen, 48 h
[1] = system: COLO 205 colon
[2] = system: SN12C renal
[3] = system: EKVX NSCLC
[4] = system: A498 renal
[5] = system: DU-145 prostate
[6] = system: UACC-257 melanoma
[7] = system: HOP-62 NSCLC
[8] = system: HCC-2998 colon
[9] = system: RXF 393 renal
[10] = system: SK-OV-3 ovarian
[11] = system: HT29 colon
[12] = system: RPMI-8226 leukemia
[13] = system: SF-539 CNS
[14] = system: MOLT-4 leukemia
[15] = system: M14 melanoma
[16] = system: SR leukemia
[17] = system: 786-0 renal
[18] = system: TK-10 renal
[19] = system: OVCAR-5 ovarian
[20] = system: IGROV1 ovarian
[21] = system: U251 CNS
[22] = system: CCRF-CEM leukemia
[23] = system: HOP-92 NSCLC
[24] = system: SF-295 CNS
[25] = system: HS 578T breast
[26] = system: ACHN renal
[27] = system: MCF7 breast
[28] = system: HCT-116 colon
[29] = system: PC-3 prostate
[30] = system: SK-MEL-28 melanoma
[31] = system: SK-MEL-5 melanoma
[32] = system: OVCAR-4 ovarian
[33] = system: SF-268 CNS
[34] = system: OVCAR-8 ovarian
[35] = system: SNB-75 CNS
[36] = system: SW-620 colon
[37] = system: OVCAR-3 ovarian
[38] = system: A549 NSCLC
[39] = system: NCI-H460 lung
[40] = system: NCI-H23 lung
[41] = system: MDA-MB-435
[42] = system: NCI-H522 lung
[43] = system: MDA-N
[44] = system: UACC-62 melanoma
[45] = system: HCT-15 colon
[46] = system: MALME-3M melanoma
[47] = system: CAKI-1 renal
[48] = system: BT-549 breast
[49] = system: KM12 colon
[50] = system: HL-60(TB) leukemia
[51] = system: K-562 leukemia
[52] = system: SNB-19 CNS
[53] = system: UO-31 renal
[54] = system: T-47D breast
[55] = system: NCI-H226 lung
[56] = system: LOX IMVI melanoma
[57] = system: MDA-MB-231 breast
[58] = system: SK-MEL-2 melanoma
[59] = system: NCI/ADR-RES ovarian

## Cc1cccc(/C(Br)=C2/OC(=O)c3ccccc32)c1
[1]
  TGI: > 100 µM
[2]
  TGI: > 100 µM
[3]
  TGI: > 100 µM
[4]
  TGI: > 100 µM
[5]
  TGI: > 100 µM
[6]
  TGI: > 100 µM
[7]
  TGI: > 100 µM
[8]
  TGI: > 100 µM
[9]
  TGI: > 100 µM
[10]
  TGI: > 100 µM
[11]
  TGI: > 100 µM
[12]
  TGI: > 100 µM
[13]
  TGI: > 100 µM
[14]
  TGI: > 100 µM
[15]
  TGI: > 100 µM
[16]
  TGI: > 100 µM
[17]
  TGI: > 100 µM
[18]
  TGI: > 100 µM
[19]
  TGI: > 100 µM
[20]
  TGI: > 100 µM
[21]
  TGI: > 100 µM
[22]
  TGI: > 100 µM
[23]
  TGI: > 100 µM
[24]
  TGI: > 100 µM
[25]
  TGI: > 100 µM
[26]
  TGI: > 100 µM
[27]
  TGI: > 100 µM
[28]
  TGI: > 100 µM
[29]
  TGI: > 100 µM
[30]
  TGI: > 100 µM
[31]
  TGI: > 100 µM
[32]
  TGI: > 100 µM
[33]
  TGI: > 100 µM
[34]
  TGI: > 100 µM
[35]
  TGI: > 100 µM
[36]
  TGI: > 100 µM
[37]
  TGI: > 100 µM
[38]
  TGI: > 100 µM
[39]
  TGI: > 100 µM
[40]
  TGI: > 100 µM
[41]
  TGI: > 100 µM
[42]
  TGI: > 100 µM
[43]
  TGI: > 100 µM
[44]
  TGI: > 100 µM
[45]
  TGI: > 100 µM
[46]
  TGI: > 100 µM
[47]
  TGI: > 100 µM
[48]
  TGI: > 100 µM
[49]
  TGI: > 100 µM

## COc1ccc(C2c3cc4c(cc3OC(NCCO)C2C)OCO4)cc1 (configuration not stated)
[1]
  TGI: 36.2 µM
[2]
  TGI: 71.7 µM
[3]
  TGI: 92.5 µM
[50]
  TGI: 43.3 µM
[4]
  TGI: 48.8 µM
[5]
  TGI: > 100 µM
[6]
  TGI: 72.4 µM
[51]
  TGI: 58.8 µM
[7]
  TGI: > 100 µM
[8]
  TGI: 66 µM
[9]
  TGI: 75.2 µM
[10]
  TGI: 87.6 µM
[11]
  TGI: 43.5 µM
[12]
  TGI: 55.3 µM
[13]
  TGI: 40.5 µM
[14]
  TGI: 50 µM
[15]
  TGI: 84.6 µM
[16]
  TGI: 39.9 µM
[18]
  TGI: 66.1 µM
[19]
  TGI: > 100 µM
[52]
  TGI: > 100 µM
[53]
  TGI: 76.8 µM
[20]
  TGI: > 100 µM
[21]
  TGI: 54.9 µM
[22]
  TGI: 52.4 µM
[23]
  TGI: 86.1 µM
[24]
  TGI: 89.1 µM
[25]
  TGI: 59.3 µM
[26]
  TGI: 93.1 µM
[27]
  TGI: 66.7 µM
[28]
  TGI: 31 µM
[29]
  TGI: 66.3 µM
[30]
  TGI: 69.1 µM
[31]
  TGI: 44.7 µM
[33]
  TGI: 72.6 µM
[54]
  TGI: > 100 µM
[35]
  TGI: 69.5 µM
[55]
  TGI: 90.2 µM
[36]
  TGI: > 100 µM
[37]
  TGI: 36.4 µM
[38]
  TGI: 68.8 µM
[39]
  TGI: 63.6 µM
[40]
  TGI: > 100 µM
[41]
  TGI: 59.7 µM
[42]
  TGI: 47.8 µM
[56]
  TGI: 68.7 µM
[43]
  TGI: 63.7 µM
[44]
  TGI: > 100 µM
[45]
  TGI: 54.4 µM
[46]
  TGI: 47.7 µM
[57]
  TGI: 63.3 µM
[58]
  TGI: 50.8 µM
[47]
  TGI: 77.1 µM
[48]
  TGI: 59 µM
[49]
  TGI: > 100 µM

## S=C1NC2=C(CSC/C2=C\c2ccccc2)C(c2ccccc2)N1 (configuration not stated)
[1]
  TGI: > 100 µM
[2]
  TGI: > 100 µM
[3]
  TGI: > 100 µM
[50]
  TGI: 44.5 µM
[5]
  TGI: > 100 µM
[6]
  TGI: 58.8 µM
[51]
  TGI: > 100 µM
[7]
  TGI: > 100 µM
[8]
  TGI: > 100 µM
[9]
  TGI: > 100 µM
[10]
  TGI: > 100 µM
[11]
  TGI: > 100 µM
[12]
  TGI: > 100 µM
[13]
  TGI: > 100 µM
[14]
  TGI: > 100 µM
[15]
  TGI: > 100 µM
[16]
  TGI: > 100 µM
[17]
  TGI: > 100 µM
[59]
  TGI: > 100 µM
[18]
  TGI: > 100 µM
[19]
  TGI: > 100 µM
[52]
  TGI: > 100 µM
[53]
  TGI: > 100 µM
[20]
  TGI: > 100 µM
[21]
  TGI: > 100 µM
[22]
  TGI: > 100 µM
[23]
  TGI: 97.4 µM
[24]
  TGI: 89.1 µM
[26]
  TGI: > 100 µM
[27]
  TGI: > 100 µM
[28]
  TGI: > 100 µM
[29]
  TGI: > 100 µM
[30]
  TGI: > 100 µM
[31]
  TGI: 24.5 µM
[32]
  TGI: > 100 µM
[33]
  TGI: > 100 µM
[34]
  TGI: > 100 µM
[54]
  TGI: > 100 µM
[55]
  TGI: > 100 µM
[36]
  TGI: > 100 µM
[37]
  TGI: > 100 µM
[38]
  TGI: > 100 µM
[39]
  TGI: > 100 µM
[40]
  TGI: > 100 µM
[42]
  TGI: > 100 µM
[56]
  TGI: > 100 µM
[43]
  TGI: > 100 µM
[44]
  TGI: > 100 µM
[45]
  TGI: > 100 µM
[46]
  TGI: 99.4 µM
[57]
  TGI: > 100 µM
[58]
  TGI: > 100 µM
[47]
  TGI: > 100 µM
[48]
  TGI: 78.7 µM
[49]
  TGI: > 100 µM

## O=c1c2ccccc2sc2ccccc12
[1]
  TGI: > 100 µM
[2]
  TGI: > 100 µM
[3]
  TGI: > 100 µM
[50]
  TGI: > 100 µM
[4]
  TGI: > 100 µM
[5]
  TGI: > 100 µM
[6]
  TGI: > 100 µM
[51]
  TGI: > 100 µM
[7]
  TGI: > 100 µM
[8]
  TGI: > 100 µM
[9]
  TGI: > 100 µM
[10]
  TGI: > 100 µM
[11]
  TGI: > 100 µM
[12]
  TGI: > 100 µM
[13]
  TGI: > 100 µM
[14]
  TGI: > 100 µM
[15]
  TGI: > 100 µM
[17]
  TGI: > 100 µM
[59]
  TGI: > 100 µM
[18]
  TGI: > 100 µM
[19]
  TGI: > 100 µM
[52]
  TGI: > 100 µM
[53]
  TGI: > 100 µM
[20]
  TGI: > 100 µM
[21]
  TGI: > 100 µM
[22]
  TGI: > 100 µM
[23]
  TGI: > 100 µM
[24]
  TGI: > 100 µM
[25]
  TGI: > 100 µM
[26]
  TGI: > 100 µM
[27]
  TGI: > 100 µM
[28]
  TGI: > 100 µM
[29]
  TGI: > 100 µM
[30]
  TGI: > 100 µM
[31]
  TGI: > 100 µM
[32]
  TGI: > 100 µM
[33]
  TGI: > 100 µM
[34]
  TGI: > 100 µM
[54]
  TGI: > 100 µM
[35]
  TGI: > 100 µM
[55]
  TGI: > 100 µM
[36]
  TGI: > 100 µM
[37]
  TGI: > 100 µM
[38]
  TGI: > 100 µM
[39]
  TGI: > 100 µM
[40]
  TGI: > 100 µM
[41]
  TGI: > 100 µM
[42]
  TGI: > 100 µM
[56]
  TGI: > 100 µM
[43]
  TGI: > 100 µM
[44]
  TGI: > 100 µM
[45]
  TGI: > 100 µM
[46]
  TGI: > 100 µM
[57]
  TGI: > 100 µM
[58]
  TGI: > 100 µM
[47]
  TGI: > 100 µM
[48]
  TGI: > 100 µM
[49]
  TGI: > 100 µM
